Reference: BigSolDB 2.1

O=C1CCC(=O)O1
solubility (mole fraction)
Conditions	283.15 K	288.15 K	293.15 K	298.15 K	303.15 K	308.15 K	313.15 K	318.15 K	323.15 K
in THF	0.071	0.077	0.085	0.093	0.104	0.115	0.129	0.145	0.164
in gamma-butyrolactone	0.197	0.218	0.239	0.261	0.283	0.307	0.331	0.354	0.378
